molecular target: T1, human CB2R (Homo sapiens, UniProt P34972); experiment: CB2R mediated modulation of cAMP synthesis; format: cell-based; settings: found through the use of the above described assays (binding and cAMP); CHO cells expressing human CB2R, forskolin-stimulated cAMP
T1 construct: host or cells: CHO cells
Summary of the method: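 EC50 values reflect inhibition of cAMP made in response to 10 uM forskolin (with 1 mM IBMX, 0.25% BSA) over 30 min at 37 °C in human CB2R-expressing CHO cells. The window runs from forskolin alone to 1 uM CP55940; curves fitted with a four-parameter logistic model.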

T1 sequence (P34972 whole entry): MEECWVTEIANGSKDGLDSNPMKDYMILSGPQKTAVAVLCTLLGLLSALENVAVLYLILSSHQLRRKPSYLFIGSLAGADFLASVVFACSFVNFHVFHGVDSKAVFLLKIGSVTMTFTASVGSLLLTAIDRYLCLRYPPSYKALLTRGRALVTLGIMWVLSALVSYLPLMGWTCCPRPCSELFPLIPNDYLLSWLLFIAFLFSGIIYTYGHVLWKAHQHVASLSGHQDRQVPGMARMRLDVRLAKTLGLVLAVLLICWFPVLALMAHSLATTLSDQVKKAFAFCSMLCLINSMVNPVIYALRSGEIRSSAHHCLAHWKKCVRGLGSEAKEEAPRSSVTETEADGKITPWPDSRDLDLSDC

| SMILES | agonistic activity |
| --- | --- |
| CC(C)(C(=O)Nc1n[nH]c(-c2ccccc2)n1)S(=O)(=O)c1ccc(Cl)cc1 [2-(4-Chloro-benzenesulfonyl)-2-methyl-N-(5-phenyl-2H-[1,2,4]triazol-3-yl)-propionamide] | agonistic activity |
| CC(C)(C)c1cnc(NC(=O)C(C)(C)S(=O)(=O)c2ccc(Cl)cc2)s1 [N-(5-tert-Butyl-thiazol-2-yl)-2-(4-chloro-benzenesulfonyl)-2-methyl-propionamide] | agonistic activity |
| Cc1cc(NC(=O)C(C)(C)S(=O)(=O)c2ccc(Cl)cc2)no1 [2-(4-Chloro-benzenesulfonyl)-2-methyl-N-(5-methyl-isoxazol-3-yl)-propionamide] | agonistic activity |
| Cn1nc(C(C)(C)C)cc1NC(=O)C(C)(C)S(=O)(=O)c1ccc(F)cc1F [N-(5-tert-Butyl-2-methyl-2H-pyrazol-3-yl)-2-(2,4-difluoro-benzenesulfonyl)-2-methyl-propionamide] | agonistic activity |
| CC(C)(C)c1cc(NC(=O)C(C)(C)S(=O)(=O)c2ccc(F)cc2F)on1 [N-(3-tert-Butyl-isoxazol-5-yl)-2-(2,4-difluoro-benzenesulfonyl)-2-methyl-propionamide] | agonistic activity |
| CC(C)(C)c1cc(NC(=O)C(C)(C)S(=O)(=O)c2ccc(Cl)s2)no1 [N-(5-tert-Butyl-isoxazol-3-yl)-2-(5-chloro-thiophene-2-sulfonyl)-2-methyl-propionamide] | agonistic activity |
| Cc1ccc(S(=O)(=O)C(C)(C)C(=O)Nc2cc(C(C)(C)C)nn2C)cc1F [N-(5-tert-Butyl-2-methyl-2H-pyrazol-3-yl)-2-(3-fluoro-4-methyl-benzenesulfonyl)-2-methyl-propionamide] | agonistic activity |
| CC(C)(C(=O)Nc1ccccc1C(F)(F)F)S(=O)(=O)c1ccc(Cl)cc1 [2-(4-Chloro-benzenesulfonyl)-2-methyl-N-(2-trifluoromethyl-phenyl)-propionamide] | agonistic activity |
| CC(C)(C(=O)Nc1ccccn1)S(=O)(=O)c1ccc(Cl)cc1 [2-(4-Chloro-benzenesulfonyl)-2-methyl-N-pyridin-2-yl-propionamide] | agonistic activity |
| CC(C)(C)c1cc(NC(=O)C(C)(C)S(=O)(=O)c2ccc(Cl)cc2)no1 [N-(5-tert-Butyl-isoxazol-3-yl)-2-(4-chloro-benzenesulfonyl)-2-methyl-propionamide] | agonistic activity |
| CC(C)(C(=O)Nc1ncc(-c2ccc(F)c(F)c2)s1)S(=O)(=O)c1ccc(F)cc1 [N-[5-(3,4-Difluoro-phenyl)-thiazol-2-yl]-2-(4-fluoro-benzenesulfonyl)-2-methyl-propionamide] | agonistic activity |
| CC(C)(C)c1csc(NC(=O)C(C)(C)S(=O)(=O)c2ccc(Cl)cc2F)n1 [N-(4-tert-Butyl-thiazol-2-yl)-2-(4-chloro-2-fluoro-benzenesulfonyl)-2-methyl-propionamide] | agonistic activity |
| CC(C)(C)c1cc(NC(=O)C(C)(C)S(=O)(=O)c2cc(Cl)c(Cl)s2)no1 [N-(5-tert-Butyl-isoxazol-3-yl)-2-(4,5-dichloro-thiophene-2-sulfonyl)-2-methyl-propionamide] | agonistic activity |
| Cc1nc(NC(=O)C(C)(C)S(=O)(=O)c2ccccc2F)sc1C(C)(C)C [N-(5-tert-Butyl-4-methyl-thiazol-2-yl)-2-(2-fluoro-benzenesulfonyl)-2-methyl-propionamide] | agonistic activity |
| CC(C)C(C(=O)Nc1cccc(C(F)(F)F)n1)S(=O)(=O)c1ccc(C(F)(F)F)cc1 (centres unmarked) [3-Methyl-2-(4-trifluoromethyl-benzenesulfonyl)-N-(6-trifluoromethyl-pyridin-2-yl)-butyramide] | agonistic activity |
| Cn1nc(C(C)(C)C)cc1NC(=O)C(C)(C)S(=O)(=O)c1ccc(F)cc1 [N-(5-tert-Butyl-2-methyl-2H-pyrazol-3-yl)-2-(4-fluoro-benzenesulfonyl)-2-methyl-propionamide] | agonistic activity |
| Cc1nc(NC(=O)C2(S(=O)(=O)c3ccc(C(F)(F)F)cc3)CC2)sc1C(C)(C)C [1-(4-Trifluoromethyl-benzenesulfonyl)-cyclopropanecarboxylic acid (5-tert-butyl-4-methyl-thiazol-2-yl)-amide] | agonistic activity |
| CC(C)(C(=O)Nc1nc(-c2ccc(Cl)cc2)cs1)S(=O)(=O)c1ccccc1 [2-Benzenesulfonyl-N-[4-(4-chloro-phenyl)-thiazol-2-yl]-2-methyl-propionamide] | agonistic activity |

More lines, now with the values ahead:

| agonistic activity | SMILES |
| --- | --- |
| agonistic activity | COc1ccc(S(=O)(=O)C(C)(C)C(=O)Nc2cc(C(C)(C)C)on2)cc1 [N-(5-tert-Butyl-isoxazol-3-yl)-2-(4-methoxy-benzenesulfonyl)-2-methyl-propionamide] |
| agonistic activity | CC(C)(C(=O)Nc1ccc(-c2ccccc2)cn1)S(=O)(=O)c1ccc(Cl)cc1 [2-(4-Chloro-benzenesulfonyl)-2-methyl-N-(5-phenyl-pyridin-2-yl)-propionamide] |
| agonistic activity | CC(C)(C(=O)Nc1ccc(C(F)(F)F)cn1)S(=O)(=O)c1ccccc1 [2-Benzenesulfonyl-2-methyl-N-(5-trifluoromethyl-pyridin-2-yl)-propionamide] |
| agonistic activity | COc1ccc(S(=O)(=O)C(C)(C)C(=O)Nc2nc(C)c(C(C)(C)C)s2)cc1 [N-(5-tert-Butyl-4-methyl-thiazol-2-yl)-2-(4-methoxy-benzenesulfonyl)-2-methyl-propionamide] |
| agonistic activity | CC(C)(C(=O)Nc1cccc2ccccc12)S(=O)(=O)c1ccc(Cl)cc1F [2-[(4-chloro-2-fluorophenyl)sulfonyl]-2-methyl-N-1-naphthylpropanamide] |
| agonistic activity | CC(C)(C)c1csc(NC(=O)C(C)(C)S(=O)(=O)c2cc(F)ccc2F)n1 [N-(4-tert-Butyl-thiazol-2-yl)-2-(2,5-difluoro-benzenesulfonyl)-2-methyl-propionamide] |
| agonistic activity | CC(C)(C(=O)Nc1cnc2ccccc2c1)S(=O)(=O)c1ccc(S(C)(=O)=O)cc1 [2-(4-Methanesulfonyl-benzenesulfonyl)-2-methyl-N-quinolin-3-yl-propionamide] |
| agonistic activity | CC(C)(C)c1coc(NC(=O)C(C)(C)S(=O)(=O)c2ccc(Cl)cc2)n1 [N-(4-tert-Butyl-oxazol-2-yl)-2-(4-chloro-benzenesulfonyl)-2-methyl-propionamide] |
| agonistic activity | CC(C)(C(=O)Nc1ccc(C(F)(F)F)cn1)S(=O)(=O)c1ccc(S(C)(=O)=O)cc1 [2-methyl-2-{[4-(methylsulfonyl)phenyl]sulfonyl}-N-[5-(trifluoromethyl)pyridin-2-yl]propanamide] |
| agonistic activity | CCc1ccnc(NC(=O)C(C)(C)S(=O)(=O)c2ccc(S(C)(=O)=O)cc2)c1 [N-(4-ethylpyridin-2-yl)-2-methyl-2-{[4-(methylsulfonyl)phenyl]sulfonyl}propanamide] |
| agonistic activity | Cc1csc(NC(=O)C(C)(C)S(=O)(=O)c2ccc(Cl)cc2)n1 [2-(4-Chloro-benzenesulfonyl)-2-methyl-N-(4-methyl-thiazol-2-yl)-propionamide] |
| agonistic activity | Cc1ccc(S(=O)(=O)C(C)(C)C(=O)Nc2cc(C(C)(C)C)nn2C)c(F)c1 [N-(5-tert-Butyl-2-methyl-2H-pyrazol-3-yl)-2-(2-fluoro-4-methyl-benzenesulfonyl)-2-methyl-propionamide] |
| agonistic activity | CC(C)(C)c1ccc(S(=O)(=O)C(C)(C)C(=O)Nc2cc(C(C)(C)C)on2)cc1 [2-(4-tert-Butyl-benzenesulfonyl)-N-(5-tert-butyl-isoxazol-3-yl)-2-methyl-propionamide] |
| agonistic activity | CC(C)(C(=O)Nc1nc(-c2ccccc2)cs1)S(=O)(=O)c1ccc(Cl)cc1 [2-(4-Chloro-benzenesulfonyl)-2-methyl-N-(4-phenyl-thiazol-2-yl)-propionamide] |
| agonistic activity | Cc1ccccc1S(=O)(=O)C(C)(C)C(=O)Nc1nc(C)c(C(C)(C)C)s1 [N-(5-tert-Butyl-4-methyl-thiazol-2-yl)-2-methyl-2-(toluene-2-sulfonyl)-propionamide] |
| agonistic activity | Cc1ccc(S(=O)(=O)C(C)(C)C(=O)Nc2cc(-c3ccccc3)nn2C)cc1 [2-Methyl-N-(2-methyl-5-phenyl-2H-pyrazol-3-yl)-2-(toluene-4-sulfonyl)-propionamide] |
| agonistic activity | Cc1noc(NC(=O)C(C)(C)S(=O)(=O)c2ccc(Cl)cc2)c1C [2-(4-Chloro-benzenesulfonyl)-N-(3,4-dimethyl-isoxazol-5-yl)-2-methyl-propionamide] |
| agonistic activity | CC(C)(C)c1csc(NC(=O)C2(S(=O)(=O)c3ccc(C(F)(F)F)cc3)CCOCC2)n1 [4-(4-Trifluoromethyl-benzenesulfonyl)-tetrahydro-pyran-4-carboxylic acid (4-tert-butyl-thiazol-2-yl)-amide] |
| agonistic activity | Cc1ccc(NC(=O)C(C)(C)S(=O)(=O)c2ccc(S(C)(=O)=O)cc2)nc1 [2-(4-Methanesulfonyl-benzenesulfonyl)-2-methyl-N-(5-methyl-pyridin-2-yl)-propionamide] |
| agonistic activity | CC(C)(C(=O)Nc1ccc(C(F)(F)F)cn1)S(=O)(=O)c1ccc(C(F)(F)F)nc1 [2-Methyl-2-(6-trifluoromethyl-pyridine-3-sulfonyl)-N-(5-trifluoromethyl-pyridin-2-yl)-propionamide] |
